Literature values as cited in paper PMC9321963 (Birth Defects Research, 2022).

Assays:
pregnant rats = details: ref Mey, Babiuk, Clugston, Zhang, & Greer, [2003]; cited from earlier work
rats = details: ref Food and Drug Administration, Duvelisib Label, [2018]; cited from earlier work
rabbits = details: ref Food and Drug Administration, Duvelisib Label, [2018]; cited from earlier work

SMILES | anomalies in offspring after administration to pregnant rats (pregnant rats) | developmental toxicity (rats) | developmental toxicity (rabbits)
O=C(NCCCCCCCCNC(=O)C(Cl)Cl)C(Cl)Cl [bisdiamine, N,N‐octamethylenebis (dichloroacetamide)] | congenital anomalies in the offspring, including CDH defects |  | 
C[C@H](Nc1ncnc2[nH]cnc12)c1cc2cccc(Cl)c2c(=O)n1-c1ccccc1 [Duvelisib] |  | developmental toxicant causing fetal losses and malformations | developmental toxicant causing fetal losses and malformations
O=C(O)c1ccc(-c2ccccc2)cc1 [4‐biphenyl carboxylic acid] | congenital anomalies in the offspring, including CDH defects |  | 
O=[N+]([O-])c1ccc(Oc2ccc(Cl)cc2Cl)cc1 [nitrofen, 2,4‐dichlorophenyl‐p‐nitrophenyl ether] | congenital anomalies in the offspring, including CDH defects |  | 
